Patent US9149475B2, “Protein kinase C inhibitors and uses thereof” (Rigel Pharmaceuticals, Inc., priority 2009, dated 2015)

system: Human primary T cells; test: IL-2 ELISA, human primary T cell, anti-CD3+CD28+ (whole cell assay); assay type: cell-based; details: Homo sapiens, T-cell, 24 h, human primary T cells stimulated with anti-CD3 + anti-CD28, 24 hours
Protocol: (§1) Human primary T cells were prepared as follows. Whole blood was obtained from a healthy volunteer, mixed 1:1 with PBS, layered on to Ficoll Hypaque (Amersham Pharmacia Biotech, Piscataway, N.J., Catalog #17-1440-03) in 2:1 blood/PBS:ficoll ratio and centrifuged for 30 minutes at 4° C. at 1750 rpm. The cells at the serum:ficoll interface were recovered and washed twice with 5 volumes of PBS. These freshly isolated human peripheral blood mononuclear cells were cultured in Yssel's medium containing 40 U/mL IL2 in a flask pre-coated with 1 μg/mL αCD3 and 5 μg/mL αCD28 (Anti-Human CD3, BD Pharmingen Catalog #555336, Anti-Human CD28, Beckman Coulter Catalog #IM1376). The cells were stimulated for 3-4 days, then transferred to a fresh flask and maintained in RPMI (RPMI-1640 with L-Glutamine; Mediatech, Inc., Herndon Va., cat. #10-040-CM) with 10% FBS and 40 U/mL IL-2. The primary T-cells were then washed twice with PBS to remove the IL-2.
Human primary T cells (100,000 cells per well) were pre-incubated with or without test compound in Yssel's medium for 1 hr at 37° C. Cells were then stimulated by transferring them to round-bottom 96-well plates pre-coated with 1 μg/ml μCD3 and 5 μg/ml μCD28. For counter assay, cells were instead stimulated by adding 8× stock solutions of PMA and ionomycin in Yssels (for final concentrations of 0.5 ng/ml PMA and 0.1 μM ionomycin, both from Calbiochem). Cells were incubated at 37° C. for 24 hours before 100 μL supernatants were harvested for quantification of IL-2 by ELISA using Human IL-2 Duoset ELISA Kit from R and D Systems, Cat. #DY202E.
as §1, with “Human primary T cell isolation and culture: Human primary” for “Human primary”, “for 30 min at 4°” for “for 30 minutes at 4°”, “at the serum: ficoll interface were” for “at the serum:ficoll interface were”
Primary T cell stimulation and IL2 ELISA: Human primary T cells (100,000 cells per well) were pre-incubated with or without test compound in Yssel's medium for 1 hr at 37° C. Cells were then stimulated by transferring them to round-bottom 96-well plates pre-coated with 1 μg/ml αCD3 and 5 μg/ml αCD28. For counter assay, cells were instead stimulated by adding 8× stock solutions of PMA and ionomycin in Yssels (for final concentrations of 0.5 ng/ml PMA and 0.1 μM ionomycin, both from Calbiochem). Cells were incubated at 37° C. for 24 hours before 100 μL supernatants were harvested for quantification of IL-2 by ELISA using Human IL-2 Duoset ELISA Kit from R and D Systems, Cat. #DY202E.

Row | Structure (SMILES) | IC50
1 | CC(C)N1CC[C@@H](Oc2ccc(Nc3ncc(F)c(NC4CC(C)(C)N(C)C(C)(C)C4)n3)cc2OC(F)F)C1 [Compound I-147, N2-(4-((R)-1-isopropylpyrrolidin-3-yloxy)-3-(difluoromethoxy)phenyl)-5-fluoro-N4-(1,2,2,6,6-pentamethylpiperidin-4-yl)pyrimidine-2,4-diamine] | < 250 nM
2 | CC(C)N1CCC(Oc2ccc(Nc3ncc(F)c(NC4CC(C)(C)N(C)C(C)(C)C4)n3)cc2OC(F)F)CC1 [Compound I-105, N2-(4-(1-isopropylpiperidin-4-yloxy)-3-(difluoromethoxy)phenyl)-5-fluoro-N4-(1,2,2,6,6-pentamethylpiperidin-4-yl)pyrimidine-2,4-diamine] | < 250 nM
3 | CC1(C)CC(Nc2nc(Nc3ccc(OC(C)(C)CN4CCCC4)c(OC(F)F)c3)ncc2F)CC(C)(C)N1 [Compound I-124, N2-(4-(2-methyl-1-(pyrrolidin-1-yl)propan-2-yloxy)-3-(difluoromethoxy)phenyl)-5-fluoro-N4-(2,2,6,6-tetramethylpiperidin-4-yl)pyrimidine-2,4-diamine] | 500 to 1000 nM
4 | CC(C)Oc1ncc(Nc2ncc(C#N)c(NC3CC(C)(C)NC(C)(C)C3)n2)cc1-c1nnnn1C1CC1 [Compound I-140, 2-(5-(1-cyclopropyl-1H-tetrazol-5-yl)-6-isopropoxypyridin-3-ylamino)-4-(2,2,6,6-tetramethylpiperidin-4-ylamino)pyrimidine-5-carbonitrile] | 250 to 500 nM
5 | CN1C(C)(C)CC(Nc2nc(Nc3ccc(OC(C)(C)CN4CCOCC4)c(OC(F)F)c3)ncc2F)CC1(C)C [Compound I-123, N2-(4-(2-methyl-1-morpholinopropan-2-yloxy)-3-(difluoromethoxy)phenyl)-5-fluoro-N4-(1,2,2,6,6-pentamethylpiperidin-4-yl)pyrimidine-2,4-diamine] | < 250 nM
6 | CN1C(C)(C)CC(Nc2nc(Nc3cc(F)cc(OCCN4CCCC4=O)c3)ncc2F)CC1(C)C [Compound I-38, 1-(2-(3-(4-(1,2,2,6,6-pentamethylpiperidin-4-ylamino)-5-fluoropyrimidin-2-ylamino)-5-fluorophenoxy)ethyl)pyrrolidin-2-one] | 500 to 1000 nM
7 | CC(C)Oc1ncc(Nc2ncc(F)c(NC3CC(C)(C)NC(C)(C)C3)n2)cc1-c1nnnn1C1CC1 [Compound I-138, N2-(5-(1-cyclopropyl-1H-tetrazol-5-yl)-6-isopropoxypyridin-3-yl)-5-fluoro-N4-(2,2,6,6-tetramethylpiperidin-4-yl)pyrimidine-2,4-diamine] | 500 to 1000 nM

Continued, values first:

Row | IC50 | Structure (SMILES)
8 | > 1000 nM | CC1(C)CC(Nc2nc(Nc3cc(F)c(OC4CCN(CCO)CC4)c(F)c3)ncc2F)CC(C)(C)N1 [III-59, 2-(4-(2,6-difluoro-4-(5-fluoro-4-(2,2,6,6-tetramethylpiperidin-4-ylamino)pyrimidin-2-ylamino)phenoxy)piperidin-1-yl)ethanol]
9 | 500 to 1000 nM | CC1(C)CC(Nc2nc(Nc3ccc(OC4CCCN(S(C)(=O)=O)CC4)c(OC(F)F)c3)ncc2F)CC(C)(C)N1 (centres unmarked) [III-90, N2-(3-(difluoromethoxy)-4-(1-(methylsulfonyl)azepan-4-yloxy)phenyl)-5-fluoro-N4-(2,2,6,6-tetramethylpiperidin-4-yl)pyrimidine-2,4-diamine]
10 | < 250 nM | CN1C(C)(C)CC(Nc2nc(Nc3cc(F)cc(-c4nnnn4C)c3)ncc2F)CC1(C)C [III-139, 5-fluoro-N2-(3-fluoro-5-(1-methyl-1H-tetrazol-5-yl)phenyl)-N4-(1,2,2,6,6-pentamethylpiperidin-4-yl)pyrimidine-2,4-diamine]
11 | 500 to 1000 nM | CC1(C)CC(Nc2nc(Nc3ccc(OC4CCN(S(C)(=O)=O)CC4)c(OC(F)F)c3)ncc2F)CC(C)(C)N1 [III-21, N2-(3-(difluoromethoxy)-4-(1-(methylsulfonyl)piperidin-4-yloxy)phenyl)-5-fluoro-N4-(2,2,6,6-tetramethylpiperidin-4-yl)pyrimidine-2,4-diamine]
12 | 250 to 500 nM | Cc1nnnn1-c1cc(Nc2ncc(F)c(NC3CC(C)(C)N(C)C(C)(C)C3)n2)ccc1OC1CCN(C(C)C)CC1 [III-1, 5-fluoro-N2-(4-(1-isopropylpiperidin-4-yloxy)-3-(5-methyl-1H-tetrazol-1-yl)phenyl)-N4-(1,2,2,6,6-pentamethylpiperidin-4-yl)pyrimidine-2,4-diamine]
13 | 250 to 500 nM | Cc1cc(Nc2ncc(F)c(NC3CC(C)(C)NC(C)(C)C3)n2)cc(-c2nnnn2C)c1 [III-132, 5-fluoro-N2-(3-methyl-5-(1-methyl-1H-tetrazol-5-yl)phenyl)-N4-(2,2,6,6-tetramethylpiperidin-4-yl)pyrimidine-2,4-diamine]
14 | < 250 nM | CN1C(C)(C)CC(Nc2nc(Nc3ccc(F)c(-c4nnnn4C)c3)ncc2F)CC1(C)C [III-121, 5-fluoro-N2-(4-fluoro-3-(1-methyl-1H-tetrazol-5-yl)phenyl)-N4-(1,2,2,6,6-pentamethylpiperidin-4-yl)pyrimidine-2,4-diamine]
15 | < 250 nM | CN1C(C)(C)CC(Nc2nc(Nc3ccc(O[C@H]4CCOC4)c(OC(F)F)c3)ncc2F)CC1(C)C [III-99, (S)—N2-(3-(difluoromethoxy)-4-(tetrahydrofuran-3-yloxy)phenyl)-5-fluoro-N4-(1,2,2,6,6-pentamethylpiperidin-4-yl)pyrimidine-2,4-diamine]
16 | > 1000 nM | CC1(C)CC(Nc2nc(Nc3ccc(OC4CCN(CCO)CC4)c(F)c3)ncc2F)CC(C)(C)N1 [III-57, 2-(4-(2-fluoro-4-(5-fluoro-4-(2,2,6,6-tetramethylpiperidin-4-ylamino)pyrimidin-2-ylamino)phenoxy)piperidin-1-yl)ethanol]
17 | 500 to 1000 nM | Cn1nnnc1-c1cc(F)cc(Nc2ncc(F)c(NC3CC(C)(C)NC(C)(C)C3)n2)c1 [III-138, 5-fluoro-N2-(3-fluoro-5-(1-methyl-1H-tetrazol-5-yl)phenyl)-N4-(2,2,6,6-tetramethylpiperidin-4-yl)pyrimidine-2,4-diamine]

same assay, conditions: human primary T cells stimulated with anti-CD3 + anti-CD28, 24 hours

Row | IC50 | Structure (SMILES)
18 | < 250 nM | CC(C)n1nnnc1-c1cccc(Nc2ncc(C#N)c(NC3CC(C)(C)N(C)C(C)(C)C3)n2)c1 [Compound I-88, 5-Cyano-N2-{3-[1-N-isopropyl-(tetrazol-5-yl)]}phenyl-N4-(1,2,2,6,6-pentamethylpiperidin-4-yl)-2,4-pyrimidinediamine]
19 | 500 to 1000 nM | Cc1ccc(C)n1-c1cc(Nc2ncc(F)c(NC3CC(C)(C)N(C)C(C)(C)C3)n2)ccc1OC(=O)NC(C)C [Compound I-103, N2-[3-(2,5-Dimethyl-pyrrol-1-yl)-4-(isopropylaminocarboxyloxy)]phenyl-5-fluoro-N4-(1,2,2,6,6-pentamethylpiperidin-4-yl)-2,4-pyrimidinediamine]
20 | < 250 nM | CC1(C)CC(Nc2nc(Nc3cccc(-n4nnnc4SCC(F)(F)F)c3)ncc2F)CC(C)(C)N1 [Compound I-70, 5-fluoro-N4-(2,2,6,6-tetramethylpiperidin-4-yl)-N2-{3-[5-(2,2,2-trifluoroethyl)thio]-1H-tetrazol-1-yl}phenyl-2,4-pyrimidinediamine]
21 | 250 to 500 nM | Cc1ccc(C)n1-c1cc(Nc2ncc(F)c(NC3CC(C)(C)NC(C)(C)C3)n2)ccc1F [Compound I-101, N2-[3-(2,5-Dimethyl-pyrrol-1-yl)-4-fluoro]phenyl-5-fluoro-N4-(2,2,6,6-tetramethylpiperidin-4-yl)-2,4-pyrimidinediamine]
22 | < 250 nM | CN1C(C)(C)CC(Nc2nc(Nc3cccc(-c4nnnn4C4CC4)c3)ncc2C#N)CC1(C)C [Compound I-94, 5-Cyano-N2-{3-[1-N-cyclopropyl-(tetrazol-5-yl)]}phenyl-N4-(1,2,2,6,6-pentamethylpiperidin-4-yl)-2,4-pyrimidinediamine]
23 | < 250 nM | CCCc1nnnn1-c1cc(Nc2ncc(C#N)c(NC3CC(C)(C)N(C)C(C)(C)C3)n2)ccc1OC [Compound I-80, 5-cyano-N2-[4-methoxy-3-(5-propyl-1H-tetrazol-1-yl)]phenyl-N4-(1,2,2,6,6-pentamethylpiperidin-4-yl)-2,4-pyrimidinediamine]
